Experimental data reported in US7982042B2, “Thiozanthene derivatives as delta-opioid modulators” (priority 2003, dated 2011).
Like-named read-outs stand apart in the source and are kept apart here.

How the values were obtained:
[1] = target: T1, Rat brain mu opioid receptor (Rattus norvegicus, UniProt P33535); test: Rat brain mu opioid receptor binding assay ([3H]DAMGO)
T1 construct: from tissue; host or cells: forebrain of male Sprague Dawley rats
Experimental: • Procedure: Male, Sprague Dawley (150-250 g, VAF, Charles River, Kingston, N.Y.) are killed by CO2, and their brains removed and placed immediately in ice cold Tris HCl buffer (50 mM, pH 7.4). The forebrains are separated from the remainder of the brain by a coronal transection, beginning dorsally at the colliculi and passing ventrally through the midbrain-pontine junction. After dissection, the forebrains are homogenized in Tris buffer in a Teflon®-glass homogenizer. The homogenate is diluted to a concentration of 1 g of forebrain tissue per 80 mL Tris and centrifuged at 39,000×g for 10 min. The pellet is resuspended in the same volume of Tris buffer containing 5 mM MgCl2 with several brief pulses from a Polytron homogenizer. This particulate preparation is used for the mu-opioid binding assays. […] Kd and Ki values are calculated using GraphPad PRISM data analysis program.

[2] = target: T2, delta opioid receptor (Mus musculus, UniProt P32300); test: [35S]GTPγS binding assay in NG108-15 cell membrane; type: biochemical
T2 construct: host or cells: NG108-15 cells (membranes, purchased)
T2 sequence (P32300 whole entry): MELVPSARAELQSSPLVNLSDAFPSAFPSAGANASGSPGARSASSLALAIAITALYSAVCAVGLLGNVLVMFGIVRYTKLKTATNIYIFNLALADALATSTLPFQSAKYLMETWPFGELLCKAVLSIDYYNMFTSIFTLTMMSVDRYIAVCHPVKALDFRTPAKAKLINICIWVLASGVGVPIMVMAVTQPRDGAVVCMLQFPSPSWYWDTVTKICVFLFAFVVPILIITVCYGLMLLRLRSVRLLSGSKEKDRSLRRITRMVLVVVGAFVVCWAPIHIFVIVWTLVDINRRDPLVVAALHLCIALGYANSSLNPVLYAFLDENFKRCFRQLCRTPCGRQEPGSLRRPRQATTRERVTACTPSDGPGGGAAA
Experimental: NG108-15 cell membranes were purchased from Applied Cell Sciences (Rockville, Md.). An 8 mg/mL portion of membrane protein was suspended in 10 mM TRIS-HC pH 7.2, 2 mM EDTA, 10% sucrose.
Membranes were maintained at 4-8° C. A 1 mL portion of membranes was added into 10 mL cold binding assay buffer. The assay buffer contained 50 mM Tris, pH 7.6, 5 mM MgCl2, 100 mM NaCl, 1 mM DTT and 1 mM EGTA. The membrane suspension was homogenized with a Polytron for 2 times and centrifuged at 3000 rpm for 10 min. The supernatent was then centrifuged at 18,000 rpm for 20 min. The pellet was saved in a tube and 10 ml assay buffer was added into the tube. The pellet and buffer were mixed with a Polytron.
The pellet membranes (75 μg/ml) were preincubated with SPA (10 mg/ml) at 25° C. for 45 min in the assay buffer. […] GTPγS in the same Tris buffer containing 100 μM GDP in total volume of 200 μl. Increasing concentrations of receptor agonists were used to stimulate [^35S] GTPγS binding. The basal binding was tested in the absent agonists and no specific binding was tested in the present 10 μM unlabeled GTPγS. The data were analyzed on a Top counter.
% of Basal=(stimulate−non specific)*100/(basal−non specific). EC50 values are calculated using a Prism program.

[3] = target: T3, Rat brain delta opioid receptor (Rattus norvegicus, UniProt P33533); test: Rat brain delta opioid receptor binding; conditions: rDOR Ki
T3 construct: from tissue; host or cells: rat brain
T3 sequence (P33533 whole entry): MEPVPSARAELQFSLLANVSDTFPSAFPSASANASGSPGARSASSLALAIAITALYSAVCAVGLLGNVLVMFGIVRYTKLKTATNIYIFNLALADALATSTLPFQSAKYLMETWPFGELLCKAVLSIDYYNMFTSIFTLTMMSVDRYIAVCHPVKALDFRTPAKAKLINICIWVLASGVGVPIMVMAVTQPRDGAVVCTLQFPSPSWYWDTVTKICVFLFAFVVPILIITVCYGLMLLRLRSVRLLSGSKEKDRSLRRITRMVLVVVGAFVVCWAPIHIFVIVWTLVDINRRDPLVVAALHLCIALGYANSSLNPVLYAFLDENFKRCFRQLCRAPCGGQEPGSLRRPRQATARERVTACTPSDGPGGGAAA

[4] = target: T4, human delta opioid receptor (Homo sapiens, UniProt P41143); test: [35S]GTPγS binding assay in CHO-hδ cell membranes; type: biochemical
T4 construct: purchased Receptor Biology, Inc. (Baltimore, Md.); host or cells: CHO cells expressing the human delta receptor (membranes)
T4 sequence (P41143 whole entry): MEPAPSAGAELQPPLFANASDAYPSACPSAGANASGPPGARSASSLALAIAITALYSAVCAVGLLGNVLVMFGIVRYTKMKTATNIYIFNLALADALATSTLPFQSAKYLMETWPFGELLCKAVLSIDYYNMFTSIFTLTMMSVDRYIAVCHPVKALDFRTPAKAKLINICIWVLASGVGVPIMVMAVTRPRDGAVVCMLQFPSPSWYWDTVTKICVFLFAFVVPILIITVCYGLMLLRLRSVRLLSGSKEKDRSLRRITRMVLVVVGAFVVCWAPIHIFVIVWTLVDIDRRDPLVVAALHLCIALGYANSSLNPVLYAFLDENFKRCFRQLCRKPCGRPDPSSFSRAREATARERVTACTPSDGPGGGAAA
Experimental: CHO-hδ cell membranes are purchased from Receptor Biology, Inc. (Baltimore, Md.). 10 mg/ml of membrane protein is suspended in 10 mM TRIS-HC pH 7.2, 2 mM EDTA, 10% sucrose.
(§1) Membranes are maintained at 4-8° C. 1 ml of membranes is added into 15 ml cold binding assay buffer. The assay buffer contained 50 mM HEPES, pH 7.6, 5 mM MgCl2, 100 mM NaCl, 1 mM DTT and 1 mM EDTA. The membrane suspension is homogenized with a Polytron 2 times and centrifuged at 3000 rpm for 10 min. The supernatant is then centrifuged at 18,000 rpm for 20 min. The pellet is saved in a tube and 10 ml assay buffer is added into the tube. The pellet and buffer are mixed with a Polytron.
(§2) The pellet membranes (20 μg/ml) are preincubated with SPA (10 mg/ml) at 25° C. for 45 min in the assay buffer. The SPA (5 mg/ml) coupled with membranes (10 μg/ml) is then incubated with 0.5 nM [^35S]GTPgS in the same HEPES buffer containing 50 μM GDP in total volume of 200 μl. Increasing concentrations of receptor agonists are used to stimulate [^35S]GTPgS binding. The basal binding is tested in the absence of agonists and non-specific binding is tested in the presence of 10 μM unlabeled GTP S. The data are analyzed on a Top counter.

[5] = target: T5, human mu opioid receptor (Homo sapiens, UniProt P35372); test: [35S]GTPγS binding assay in CHO-hμ cell membranes; type: biochemical; conditions: inhibition relative to 1 uM DAMGO, read-out: hMOR GTPγS % I @10 μM
T5 construct: purchased Receptor Biology, Inc. (Baltimore, Md.); host or cells: CHO cells expressing the human mu receptor (membranes)
T5 sequence (P35372 whole entry): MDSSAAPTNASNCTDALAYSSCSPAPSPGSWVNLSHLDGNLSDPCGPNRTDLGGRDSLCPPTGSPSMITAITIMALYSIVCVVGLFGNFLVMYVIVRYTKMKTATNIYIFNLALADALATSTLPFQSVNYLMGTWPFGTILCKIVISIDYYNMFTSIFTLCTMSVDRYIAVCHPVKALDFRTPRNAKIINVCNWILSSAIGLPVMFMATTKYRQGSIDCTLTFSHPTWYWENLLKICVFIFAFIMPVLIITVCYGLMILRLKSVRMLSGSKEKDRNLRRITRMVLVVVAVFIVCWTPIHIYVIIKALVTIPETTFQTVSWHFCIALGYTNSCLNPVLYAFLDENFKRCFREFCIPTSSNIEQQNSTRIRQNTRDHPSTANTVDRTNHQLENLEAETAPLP
Experimental: CHO-hμ cell membranes are purchased from Receptor Biology, Inc. (Baltimore, Md.). About 10 mg/ml of membrane protein is suspended in 10 mM TRIS-HC pH 7.2, 2 mM EDTA, 10% sucrose.
as §1, with “assay buffer contains 50 mM” for “assay buffer contained 50 mM”, “is added to the tube.” for “is added into the tube.”
as §2, with “25 C′” for “25° C.”, “present” for “presence of”, “GTPγS.” for “GTP S.”
% of Basal=(stimulate−non-specific)*100/(basal−non specific). % inhibition value values are calculated using a formula, % Inhibition=(% Basal of 1 uM DAMGO−% Basal of compound)*100/(% Basal of 1 uM DAMGO−100)

[6] = DOR GTPγS EC50, delta opioid receptor GTPγS functional assay
[7] = hDOR GTPγS EC50, human delta opioid receptor GTPγS functional assay

T1 sequence (P33535 whole entry): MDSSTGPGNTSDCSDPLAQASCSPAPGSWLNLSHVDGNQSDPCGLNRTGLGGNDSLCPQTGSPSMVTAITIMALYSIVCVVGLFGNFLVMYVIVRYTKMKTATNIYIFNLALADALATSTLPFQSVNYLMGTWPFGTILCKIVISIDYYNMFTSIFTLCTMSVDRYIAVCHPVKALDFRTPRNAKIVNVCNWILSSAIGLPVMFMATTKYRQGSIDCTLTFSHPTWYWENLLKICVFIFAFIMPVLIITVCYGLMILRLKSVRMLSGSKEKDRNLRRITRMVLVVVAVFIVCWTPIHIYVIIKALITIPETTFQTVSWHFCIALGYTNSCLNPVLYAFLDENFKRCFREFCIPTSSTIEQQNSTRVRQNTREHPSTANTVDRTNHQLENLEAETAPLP

Row | SMILES | Ki ([1]; rMOR Ki) [µM] | EC50 [2, 6] [µM] | Ki [3] [µM] | EC50 [4, 7] [µM] | Ki ([1]; read-out: rMOR Ki) [µM] | EC50 ([2]; delta opioid receptor GTPγS functional assay, read-out: DOR GTPγS EC50) [µM] | inhibition at 10 µM [5] [%] | EC50 ([4]; human delta opioid receptor GTPγS functional assay, read-out: hDOR GTPγS EC50) [µM]
1 | CCN(CC)C(=O)c1ccc2c(c1)Oc1ccccc1C2=C1CC2CCC(C1)N2 (single isomer, unassigned) [Compound 52, 9-(8-Aza-bicyclo[3.2.1]oct-3-ylidene)-9H-xanthene-3-carboxylic acid diethylamide] | > 0.1 | 0.066 | 0.00061 | 0.00444 |  |  |  | 
2 | CCN(CC)C(=O)c1ccc2c(c1)Oc1ccccc1C2=C1CC2CCC(C1)N2 (single isomer, unassigned) [Compound 53, 9-(8-Aza-bicyclo[3.2.1]oct-3-ylidene)-9H-xanthene-3-carboxylic acid diethylamide] |  | 2.06 | 0.0501 | 0.257 | > 0.1 |  |  | 
3 | CCNC(=O)c1ccc2c(c1)Oc1ccccc1C2=C1CC2CCC(C1)N2 (single isomer, unassigned) [Compound 55] |  |  | 0.0665 |  | 1.85 | > 1 |  | 
4 | CCN(CC)C(=O)c1ccc2c(c1)Sc1ccccc1C2=C1CC2CCC(C1)N2 (single isomer, unassigned) [Compound 61, 9-(8-Aza-bicyclo[3.2.1]oct-3-ylidene)-9H-thioxanthene-3-carboxylic acid diethylamide] | 7.18 | 0.188 | 0.133 |  |  |  |  | 
5 | CCN(CC)C(=O)c1ccc2c(c1)Sc1ccccc1C2=C1CC2CCC(C1)N2 (single isomer, unassigned) [Compound 62, 9-(8-Aza-bicyclo[3.2.1]oct-3-ylidene)-9H-thioxanthene-3-carboxylic acid diethylamide] | 0.739 | 0.00835 | 0.00296 |  |  |  |  | 
6 | CCN(CC)C(=O)c1ccc2c(c1)Sc1ccccc1C2=C1CC2CCC(C1)N2Cc1ccc2c(c1)OCO2 [Compound 47, 9-(8-Benzo[1,3]dioxol-5-ylmethyl-8-aza-bicyclo[3.2.1]oct-3-ylidene)-9H-thioxanthene-3-carboxylic acid diethylamide] | 0.0483 |  | 0.0045 |  |  |  | 59.2 | 0.125
7 | CCN(CC)C(=O)c1ccc2c(c1)Oc1c(OC)cccc1C2=C1CC2CCC(C1)N2 [Compound 68, 9-(8-Aza-bicyclo[3.2.1]oct-3-ylidene)-5-methoxy-9H-xanthene-3-carboxylic acid diethylamide] | 1.29 | 0.022 | 0.00074 |  |  |  |  | 
8 | CCN(CC)C(=O)c1ccc2c(c1)Oc1ccc(F)cc1C2=C1CC2CCC(C1)N2 [Compound 69] | 5.83 | 0.126 | 0.00499 |  |  |  |  | 
9 | CCN(CC)C(=O)c1ccc2c(c1)Oc1cc(O)ccc1C2=C1CC2CCC(C1)N2 [Compound 76, 9-(8-Aza-bicyclo[3.2.1]oct-3-ylidene)-6-hydroxy-9H-xanthene-3-carboxylic acid diethylamide] | 0.285 | 0.00591 | 0.0017 |  |  |  |  | 
10 | CC(C)N(C)C(=O)c1ccc2c(c1)Oc1ccccc1C2=C1CC2CCC(C1)N2 [Compound 92, 9-(8-Aza-bicyclo[3.2.1]oct-3-ylidene)-9H-xanthene-3-carboxylic acid isopropyl-methyl-amide] | 0.00209 | 0.0553 | 0.00209 |  |  |  |  | 
11 | CCN(CC)C(=O)c1ccc2c(c1)Oc1c(Br)cccc1C2=C1CC2CCC(C1)N2 [Compound 94, 9-(8-Aza-bicyclo[3.2.1]oct-3-ylidene)-5-bromo-9H-xanthene-3-carboxylic acid diethylamide] | 0.674 | 0.0141 | 0.00228 |  |  |  |  | 
12 | CCN(CC)C(=O)c1ccc2c(c1)Oc1c(cccc1-c1ccncc1)C2=C1CC2CCC(C1)N2 [Compound 96, 9-(8-Aza-bicyclo[3.2.1]oct-3-ylidene)-5-pyridin-4-yl-9H-xanthene-3-carboxylic acid diethylamide] | 4.22 | 0.0353 | 0.00169 |  |  |  |  | 
13 | CCN(CC)C(=O)c1ccc2c(c1)Oc1c(cccc1-c1ccoc1)C2=C1CC2CCC(C1)N2 [Compound 97, 9-(8-Aza-bicyclo[3.2.1]oct-3-ylidene)-5-furan-3-yl-9H-xanthene-3-carboxylic acid diethylamide] | 1.81 | 0.0133 | 0.00178 |  |  |  |  | 
14 | CCN(CC)C(=O)c1ccc2c(c1)Oc1c(cccc1-c1ccsc1)C2=C1CC2CCC(C1)N2 [Compound 99, 9-(8-Aza-bicyclo[3.2.1]oct-3-ylidene)-5-thiophen-3-yl-9H-xanthene-3-carboxylic acid diethylamide] | 3.49 | 0.0125 | 0.0193 |  |  |  |  | 
15 | CCN(CC)C(=O)c1ccc2c(c1)Oc1c(O)cccc1C2=C1CC2CCC(C1)N2 [Compound 100, 9-(8-Aza-bicyclo[3.2.1]oct-3-ylidene)-5-hydroxy-9H-xanthene-3-carboxylic acid diethylamide] | 0.00585 | 0.000452 | 0.000274 |  |  |  |  | 
16 | CCN(CC)C(=O)c1ccc2c(c1)Oc1c(cccc1-c1cccnc1)C2=C1CC2CCC(C1)N2 [Compound 101, 9-(8-Aza-bicyclo[3.2.1]oct-3-ylidene)-5-pyridin-3-yl-9H-xanthene-3-carboxylic acid diethylamide] | 0.532 | 0.0193 | 0.00914 |  |  |  |  | 
